Measured values taken from patent publication US20110251379A1, “COMPOUNDS USEFUL FOR TREATING NEURODEGENERATIVE DISORDERS” (Satori Pharmaceuticals, Inc., priority 2010, published 2011).
pIC50: −log10 of the molar value. Read-outs that look alike come from different tables or passages of the source.

Columns and labels:
Format in all cases: cell-based
Aβ-38 = assay: MSD Human (6E10) Ab 3-PLEX elisa, conditioned media of 2B7 cells: Aβ-38; settings: for pIC50: Aβ-38 (superscript a)
Procedure, shortened: (§1)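 Read-out is MSD electrochemiluminescence of secreted Aβ peptides in 2B7 conditioned media after 5 hours of compound exposure at 37° C in 1% DMSO. Concentrations come from seven-point standard curves, and IC50 values from 4-parameter fits of percent vehicle.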

Aβ-40 = assay: MSD Human (6E10) Ab 3-PLEX elisa, conditioned media of 2B7 cells: Aβ-40; settings: for inhibition at 20 µM / % Inh. (range): Aβ-40, 20 μM; for pIC50: Aβ-40 (superscript b)
Procedure, shortened: as §1

Aβ-42 = assay: MSD Human (6E10) Ab 3-PLEX elisa, conditioned media of 2B7 cells: Aβ-42; settings: for pIC50: Aβ-42 (superscript c)
Procedure, shortened: as §1

[1] = Homo sapiens, read-out: 50% reduction value
[2] = Homo sapiens, read-out: IC50 range

Structure (SMILES): CC[S+]([O-])[C@@H](C1C[C@@H](C)[C@H]2C(O1)[C@H](O)[C@@]1(C)C3CC[C@H]4C(C)(C)C(O[C@H]5CN(C6COC6)CCO5)CC[C@@]45C[C@@]35CC[C@]21C)C(C)(C)O (stereo partly drawn)
- pIC50 (Aβ-38; [1]): 5.00 to 6.00
- inhibition at 20 µM (Aβ-40; Homo sapiens): 25 to 75%
- inhibition at 20 µM (Aβ-42; Homo sapiens, Aβ-42, 20 μM): 25 to 75%

Structure (SMILES): CCO[C@@H](C1C[C@@H](C)[C@H]2C(O1)[C@H](O)[C@@]1(C)C3CC[C@H]4C(C)(C)C(OC5CN(Cc6ccccc6)CCO5)CC[C@@]45C[C@@]35CC[C@]21C)C(C)(C)O (stereo partly drawn) [drawing 1307]
- pIC50 (Aβ-38; read-out: IC50 range): 5.00 to 6.00
- pIC50 (Aβ-40; read-out: 50% reduction value): 5.00 to 6.00
- pIC50 (Aβ-42; read-out: IC50 range): 5.00 to 6.00

Structure (SMILES): CCO[C@@H](C1C[C@@H](C)[C@H]2C(O1)[C@H](O)[C@@]1(C)C3CC[C@H]4C(C)(C)C(O[C@H]5CN(CCC(=O)O)CCO5)CC[C@@]45C[C@@]35CC[C@]21C)C(C)(C)O (stereo partly drawn)
- pIC50 (Aβ-38; [1]): > 6.00
- pIC50 (Aβ-40; [1]): 5.00 to 6.00
- pIC50 (Aβ-42; [1]): > 6.00
- pIC50 (Aβ-42; [2]): > 6.00

Structure (SMILES): CC1CC(C(OC(=O)N(C)C)C(C)(C)O)OC2C1C1(C)CCC34CC35CCC(O)C(C)(C)C5CCC4C1(C)C2O (stereo not drawn) [drawing 1217]
- pIC50 (Aβ-38; read-out: 50% reduction value): 5.00 to 6.00
- % Inh. (range) (Aβ-40): E^b (20 μM) E^c (20 μM) (% inhibition of 25-75%)
- % Inh. (range) (Aβ-42; Aβ-42, 20 μM): E^b (20 μM) E^c (20 μM) (% inhibition of 25-75%)

Structure (SMILES): C[C@@H]1CC(CN2CCC[C@H]2C(=O)O)OC2[C@H]1[C@@]1(C)CC[C@@]34C[C@@]35CC[C@H](O[C@H]3CN(C(=O)CC6CC6)CCO3)C(C)(C)[C@@H]5CCC4[C@]1(C)[C@H]2O (stereo partly drawn)
- inhibition at 100 µM (Aβ-38; Homo sapiens, Aβ-38, 100 μM): 25 to 75%
- inhibition at 100 µM (Aβ-40; Homo sapiens, Aβ-40, 100 μM): 25 to 75%
- pIC50 (Aβ-42; [2]): < 5.00

Structure (SMILES): CCO[C@@H]([C@H]1C[C@@H](C)[C@H]2[C@H](O1)[C@H](O)[C@@]1(C)[C@@H]3CC[C@H]4C(C)(C)[C@@H](OC5CN(C)CCO5)CC[C@@]45C[C@@]35CC[C@]21C)C(C)(C)O (stereo partly drawn)
- pIC50 (Aβ-38; [1]): > 6.00
- pIC50 (Aβ-38; [2]): > 6.00
- pIC50 (Aβ-40; [1]): 5.00 to 6.00
- pIC50 (Aβ-40; [2]): 5.00 to 6.00
- pIC50 (Aβ-42; [1]): > 6.00
- pIC50 (Aβ-42; [2]): > 6.00

Structure (SMILES): CC(C)[C@@H](OC(=O)N1CCC1)C1C[C@@H](C)[C@H]2C(O1)[C@H](O)[C@@]1(C)C3CC[C@H]4C(C)(C)C(OC(=O)N5CCn6ccnc6C5)CC[C@@]45C[C@@]35CC[C@]21C (stereo partly drawn)
- pIC50 (Aβ-38; [1]): > 6.00
- pIC50 (Aβ-40; [1]): < 5.00
- pIC50 (Aβ-42; [1]): > 6.00

Structure (SMILES): CC(=O)O[C@@H]([C@H]1C[C@@H](C)[C@H]2[C@H](O1)[C@H](O)[C@@]1(C)[C@@H]3CC[C@H]4C(C)(C)C(OC(N)=O)CC[C@@]45C[C@@]35CC[C@]21C)C(C)(C)O (stereo partly drawn) [drawing 1201]
- pIC50 (Aβ-38; [1]): > 6.00
- pIC50 (Aβ-38; [2]): > 6.00
- inhibition at 20 µM (Aβ-40; Homo sapiens): 25 to 75%
- pIC50 (Aβ-42; [1]): > 6.00
- pIC50 (Aβ-42; [2]): > 6.00

Structure (SMILES): CO[C@H](C(C)C)C1C[C@@H](C)[C@H]2C(O1)[C@H](O)[C@@]1(C)C3CC[C@H]4C(C)(C)[C@@H](O[C@H]5CNCCO5)CC[C@@]45C[C@@]35CC[C@]21C (stereo partly drawn)
- pIC50 (Aβ-38; [1]): 5.00 to 6.00
- pIC50 (Aβ-38; [2]): 5.00 to 6.00
- pIC50 (Aβ-40; [1]): 5.00 to 6.00
- pIC50 (Aβ-40; [2]): 5.00 to 6.00
- pIC50 (Aβ-42; [1]): 5.00 to 6.00
- pIC50 (Aβ-42; [2]): 5.00 to 6.00

Structure (SMILES): CC(=O)N(Cc1cc(F)cc(F)c1)CC1CC(C)C2C(O1)C(O)C1(C)C3CCC4C(C)(C)C(O)CCC45CC35CCC21C (stereo not drawn) [drawing 1211]
- pIC50 (Aβ-38; read-out: 50% reduction value): 5.00 to 6.00
- pIC50 (Aβ-40; read-out: 50% reduction value): < 5.00
- pIC50 (Aβ-42; read-out: 50% reduction value): 5.00 to 6.00

Structure (SMILES): COC1C2OC(C(OC(=O)C3CC3)C(C)(C)O)CC(C)C2C2(C)CCC34CC35CCC(OC3CNCCO3)C(C)(C)C5CCC4C12C (stereo not drawn)
- pIC50 (Aβ-38; read-out: 50% reduction value): 5.00 to 6.00
- % Inh. (range) (Aβ-40): E^b (20 μM) (% inhibition of 25-75%)
- pIC50 (Aβ-42; read-out: 50% reduction value): 5.00 to 6.00

Structure (SMILES): CC(=O)N(Cc1ccccn1)CC1CC(C)C2C(O1)C(O)C1(C)C3CCC4C(C)(C)C(O)CCC45CC35CCC21C (stereo not drawn) [drawing 1212]
- pIC50 (Aβ-38; read-out: 50% reduction value): < 5.00
- pIC50 (Aβ-40; read-out: 50% reduction value): < 5.00
- pIC50 (Aβ-42; read-out: 50% reduction value): < 5.00

Structure (SMILES): C[C@@H]1CC([C@H](OC(=O)C2CCOCC2)C(C)(C)O)OC2[C@H]1[C@@]1(C)CC[C@@]34C[C@@]35CC[C@H](O)C(C)(C)[C@@H]5CCC4[C@]1(C)[C@H]2O (stereo partly drawn)
- pIC50 (Aβ-38; [1]): 5.00 to 6.00
- inhibition at 20 µM (Aβ-40; Homo sapiens): 25 to 75%
- inhibition at 20 µM (Aβ-42; Homo sapiens, Aβ-42, 20 μM): 25 to 75%

Structure (SMILES): CCO[C@@H]([C@H]1C[C@@H](C)[C@H]2[C@H](O1)[C@H](O)[C@@]1(C)[C@@H]3CC[C@H]4C(C)(C)[C@@H](OC(=O)N5CC(C(=O)O)C5)CC[C@@]45C[C@@]35CC[C@]21C)C(C)(C)O
- pIC50 (Aβ-38; [1]): > 6.00
- pIC50 (Aβ-38; [2]): > 6.00
- pIC50 (Aβ-40; [1]): 5.00 to 6.00
- pIC50 (Aβ-40; [2]): 5.00 to 6.00
- pIC50 (Aβ-42; [1]): > 6.00
- pIC50 (Aβ-42; [2]): > 6.00

Structure (SMILES): CCOC(=O)CO[C@@H]([C@H]1C[C@@H](C)[C@H]2[C@H](O1)[C@H](O)[C@@]1(C)C3CC[C@H]4C(C)(C)[C@@H](O[C@H]5CN(C6COC6)CCO5)CC[C@@]45C[C@@]35CC[C@]21C)C(C)(C)O (stereo partly drawn)
- inhibition at 20 µM (Aβ-38; Homo sapiens, Aβ-38, 20 μM): 25 to 75%
- pIC50 (Aβ-40; [1]): < 5.00
- inhibition at 20 µM (Aβ-42; Homo sapiens, Aβ-42, 20 μM): 25 to 75%

Structure (SMILES): CC(C)[C@@H](OC(=O)N1CCC1)C1C[C@@H](C)[C@H]2C(O1)[C@H](O)[C@@]1(C)C3CC[C@H]4C(C)(C)C(OC(=O)N5CC6(COC6)C5)CC[C@@]45C[C@@]35CC[C@]21C (stereo partly drawn)
- pIC50 (Aβ-38; [1]): > 6.00
- pIC50 (Aβ-40; [1]): < 5.00
- pIC50 (Aβ-42; [1]): > 6.00
